Measured values: ChEMBL document CHEMBL3991601, “The target landscape of clinical kinase drugs” (Science, 2017)
The source made the active and inactive calls. Cut-off read from the data, not from the text of the source, for most assays here: actives have a measured Kd and inactives only a lower limit.

Assays:
[1] = target: T1, AarF domain-containing protein kinase 1 (Homo sapiens, UniProt Q86TW2)
T1 sequence (Q86TW2 whole entry): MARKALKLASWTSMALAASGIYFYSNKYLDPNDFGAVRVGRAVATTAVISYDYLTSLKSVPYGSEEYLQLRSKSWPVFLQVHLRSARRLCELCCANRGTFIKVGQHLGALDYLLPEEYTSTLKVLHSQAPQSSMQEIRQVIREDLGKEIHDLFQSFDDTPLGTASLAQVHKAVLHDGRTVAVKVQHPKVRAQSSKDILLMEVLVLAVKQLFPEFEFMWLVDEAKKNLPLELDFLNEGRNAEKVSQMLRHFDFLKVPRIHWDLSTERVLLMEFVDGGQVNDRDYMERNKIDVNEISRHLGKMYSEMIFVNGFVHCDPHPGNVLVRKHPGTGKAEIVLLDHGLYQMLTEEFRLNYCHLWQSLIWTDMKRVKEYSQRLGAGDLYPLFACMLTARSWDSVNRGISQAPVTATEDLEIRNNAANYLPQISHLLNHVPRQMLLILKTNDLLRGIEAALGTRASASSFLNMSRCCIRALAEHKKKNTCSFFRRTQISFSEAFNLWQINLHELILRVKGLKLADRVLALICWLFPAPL

[2] = target: Aurora kinase B (Homo sapiens, UniProt Q96GD4)
Aurora kinase B, sequence (Q96GD4 whole entry): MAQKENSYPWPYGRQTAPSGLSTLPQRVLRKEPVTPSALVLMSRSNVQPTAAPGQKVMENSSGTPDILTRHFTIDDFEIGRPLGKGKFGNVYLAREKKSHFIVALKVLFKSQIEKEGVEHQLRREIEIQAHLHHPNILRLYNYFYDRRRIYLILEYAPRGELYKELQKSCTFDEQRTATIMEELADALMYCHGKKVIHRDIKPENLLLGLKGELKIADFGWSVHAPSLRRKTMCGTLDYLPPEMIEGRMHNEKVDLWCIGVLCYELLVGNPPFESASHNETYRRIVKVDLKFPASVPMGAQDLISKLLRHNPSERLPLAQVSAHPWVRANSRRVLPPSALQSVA

[3] = target: Tyrosine-protein kinase CSK (Homo sapiens, UniProt P41240)
Tyrosine-protein kinase CSK, sequence (P41240 whole entry): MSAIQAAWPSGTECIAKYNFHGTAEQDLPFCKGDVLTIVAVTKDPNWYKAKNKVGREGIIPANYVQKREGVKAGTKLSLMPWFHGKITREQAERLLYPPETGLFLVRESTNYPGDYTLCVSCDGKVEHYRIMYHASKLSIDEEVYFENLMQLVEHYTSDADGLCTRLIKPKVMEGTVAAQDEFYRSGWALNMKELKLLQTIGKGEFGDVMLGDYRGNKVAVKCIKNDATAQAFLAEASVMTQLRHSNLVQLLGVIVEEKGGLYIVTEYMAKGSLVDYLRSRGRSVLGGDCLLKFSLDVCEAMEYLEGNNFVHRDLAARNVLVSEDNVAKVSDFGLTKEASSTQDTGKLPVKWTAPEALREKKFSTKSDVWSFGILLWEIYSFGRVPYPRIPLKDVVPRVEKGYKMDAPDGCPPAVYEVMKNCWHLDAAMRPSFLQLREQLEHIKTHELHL

[4] = target: Deoxycytidine kinase (Homo sapiens, UniProt P27707)
Deoxycytidine kinase, sequence (P27707 whole entry): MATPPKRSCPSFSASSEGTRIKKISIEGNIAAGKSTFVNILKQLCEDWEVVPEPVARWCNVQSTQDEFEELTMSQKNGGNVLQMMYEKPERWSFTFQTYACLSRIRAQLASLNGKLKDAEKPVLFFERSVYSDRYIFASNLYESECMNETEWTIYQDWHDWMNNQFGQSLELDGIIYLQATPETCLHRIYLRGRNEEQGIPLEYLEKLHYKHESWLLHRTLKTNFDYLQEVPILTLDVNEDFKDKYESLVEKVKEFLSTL

[5] = target: T2, Ferrochelatase, mitochondrial (Homo sapiens, UniProt P22830)
T2 sequence (P22830 whole entry): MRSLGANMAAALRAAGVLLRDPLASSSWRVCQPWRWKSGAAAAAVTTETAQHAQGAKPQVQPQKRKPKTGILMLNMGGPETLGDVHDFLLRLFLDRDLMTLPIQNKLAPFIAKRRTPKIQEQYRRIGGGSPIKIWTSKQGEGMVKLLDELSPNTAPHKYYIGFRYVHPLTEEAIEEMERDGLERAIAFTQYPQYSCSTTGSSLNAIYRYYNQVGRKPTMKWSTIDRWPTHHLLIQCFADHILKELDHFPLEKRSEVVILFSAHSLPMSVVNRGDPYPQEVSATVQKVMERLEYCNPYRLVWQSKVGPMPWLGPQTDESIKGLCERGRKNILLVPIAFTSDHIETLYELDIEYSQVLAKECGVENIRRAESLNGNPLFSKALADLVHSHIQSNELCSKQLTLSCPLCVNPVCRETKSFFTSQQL

[6] = target: Tyrosine-protein kinase Fyn (Homo sapiens, UniProt P06241)
Tyrosine-protein kinase Fyn, sequence (P06241 whole entry): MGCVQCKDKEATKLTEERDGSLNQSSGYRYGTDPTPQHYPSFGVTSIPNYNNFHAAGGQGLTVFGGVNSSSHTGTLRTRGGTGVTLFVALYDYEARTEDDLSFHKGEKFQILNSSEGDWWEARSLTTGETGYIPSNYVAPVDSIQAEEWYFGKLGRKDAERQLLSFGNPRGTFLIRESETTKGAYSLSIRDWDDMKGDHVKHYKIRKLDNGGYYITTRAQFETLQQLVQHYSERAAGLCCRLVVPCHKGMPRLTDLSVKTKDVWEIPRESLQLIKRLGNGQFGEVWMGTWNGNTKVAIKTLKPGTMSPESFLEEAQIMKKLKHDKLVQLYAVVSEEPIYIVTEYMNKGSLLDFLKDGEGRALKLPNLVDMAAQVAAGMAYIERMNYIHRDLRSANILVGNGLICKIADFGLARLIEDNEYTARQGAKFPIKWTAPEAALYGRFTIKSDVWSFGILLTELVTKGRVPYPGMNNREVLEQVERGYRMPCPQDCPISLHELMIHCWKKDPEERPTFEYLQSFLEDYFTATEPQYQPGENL

[7] = target: Inosine-5'-monophosphate dehydrogenase 2 (Homo sapiens, UniProt P12268)
[8] = target: T3, Dual specificity mitogen-activated protein kinase kinase 6 (Homo sapiens, UniProt P52564)
T3 sequence (P52564 whole entry): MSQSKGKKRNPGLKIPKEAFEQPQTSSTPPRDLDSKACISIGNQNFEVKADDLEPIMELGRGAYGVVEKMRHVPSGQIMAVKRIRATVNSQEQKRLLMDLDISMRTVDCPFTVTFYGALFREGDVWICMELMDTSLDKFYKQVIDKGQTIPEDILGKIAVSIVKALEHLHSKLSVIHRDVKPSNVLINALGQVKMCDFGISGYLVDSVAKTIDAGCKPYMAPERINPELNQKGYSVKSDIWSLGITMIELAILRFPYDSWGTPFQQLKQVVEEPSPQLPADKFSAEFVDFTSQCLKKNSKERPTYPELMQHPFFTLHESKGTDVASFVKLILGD

[9] = target: T4, Mitogen-activated protein kinase kinase kinase 5 (Homo sapiens, UniProt Q99683)
T4 sequence (Q99683 whole entry): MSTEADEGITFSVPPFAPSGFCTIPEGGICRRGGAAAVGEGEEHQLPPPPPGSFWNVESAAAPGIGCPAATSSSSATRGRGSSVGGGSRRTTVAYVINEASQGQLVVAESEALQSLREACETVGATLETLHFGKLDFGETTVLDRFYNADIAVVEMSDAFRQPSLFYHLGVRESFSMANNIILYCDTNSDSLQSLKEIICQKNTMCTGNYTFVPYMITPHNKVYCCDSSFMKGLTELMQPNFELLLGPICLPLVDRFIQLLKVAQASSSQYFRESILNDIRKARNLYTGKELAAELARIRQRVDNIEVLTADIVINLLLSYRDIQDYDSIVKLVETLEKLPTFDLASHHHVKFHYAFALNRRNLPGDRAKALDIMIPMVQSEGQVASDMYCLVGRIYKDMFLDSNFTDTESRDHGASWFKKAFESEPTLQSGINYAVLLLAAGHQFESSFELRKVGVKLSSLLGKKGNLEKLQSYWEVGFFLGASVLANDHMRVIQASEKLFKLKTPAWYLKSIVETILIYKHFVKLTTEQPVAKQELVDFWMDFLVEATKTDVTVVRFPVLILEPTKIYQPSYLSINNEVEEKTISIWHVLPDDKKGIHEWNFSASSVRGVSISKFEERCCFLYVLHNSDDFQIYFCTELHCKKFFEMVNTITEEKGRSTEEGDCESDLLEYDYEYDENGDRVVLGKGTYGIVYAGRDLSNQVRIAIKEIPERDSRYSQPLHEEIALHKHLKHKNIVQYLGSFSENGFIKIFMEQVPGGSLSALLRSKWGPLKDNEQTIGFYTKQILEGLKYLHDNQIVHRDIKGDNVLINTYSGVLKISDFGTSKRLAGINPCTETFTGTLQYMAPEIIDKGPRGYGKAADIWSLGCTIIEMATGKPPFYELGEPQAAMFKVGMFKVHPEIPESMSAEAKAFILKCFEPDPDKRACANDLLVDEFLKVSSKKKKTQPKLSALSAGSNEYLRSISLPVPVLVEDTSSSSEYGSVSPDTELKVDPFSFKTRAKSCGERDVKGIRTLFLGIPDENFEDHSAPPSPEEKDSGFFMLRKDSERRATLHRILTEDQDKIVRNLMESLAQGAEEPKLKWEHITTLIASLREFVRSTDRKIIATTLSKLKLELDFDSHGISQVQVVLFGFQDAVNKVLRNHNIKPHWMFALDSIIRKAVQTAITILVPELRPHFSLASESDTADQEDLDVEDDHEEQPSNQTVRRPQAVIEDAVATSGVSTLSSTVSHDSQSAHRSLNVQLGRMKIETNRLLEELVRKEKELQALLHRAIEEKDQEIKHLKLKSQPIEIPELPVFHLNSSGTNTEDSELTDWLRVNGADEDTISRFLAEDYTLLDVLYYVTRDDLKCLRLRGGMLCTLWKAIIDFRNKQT

[10] = target: Proto-oncogene tyrosine-protein kinase Src (Homo sapiens, UniProt P12931)
Proto-oncogene tyrosine-protein kinase Src, sequence (P12931 2-536 limits assumed): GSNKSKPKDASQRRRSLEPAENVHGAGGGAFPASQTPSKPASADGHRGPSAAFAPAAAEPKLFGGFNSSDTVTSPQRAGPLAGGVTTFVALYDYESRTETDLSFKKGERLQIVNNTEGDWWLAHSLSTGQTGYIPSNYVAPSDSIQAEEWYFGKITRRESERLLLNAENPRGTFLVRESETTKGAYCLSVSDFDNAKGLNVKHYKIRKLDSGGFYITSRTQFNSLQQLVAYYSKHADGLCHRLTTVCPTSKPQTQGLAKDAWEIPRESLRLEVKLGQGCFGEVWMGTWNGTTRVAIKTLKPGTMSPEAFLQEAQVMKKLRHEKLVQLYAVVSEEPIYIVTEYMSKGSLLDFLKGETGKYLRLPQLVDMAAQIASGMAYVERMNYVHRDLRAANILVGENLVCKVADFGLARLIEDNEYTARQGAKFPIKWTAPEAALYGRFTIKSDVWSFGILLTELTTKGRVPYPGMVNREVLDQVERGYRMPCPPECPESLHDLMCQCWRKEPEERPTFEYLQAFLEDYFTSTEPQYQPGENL
Note: in the data inactive means no Kd found up to 30 µM.

Compound	Kd [1]	Kd [2]	Kd [3]	Kd [4]	Kd [5]	Kd [6]	Kd [7]	Kd [8]	Kd [9]	Kd [10]
COCC(=O)NC/C=C/c1ccc2ncnc(Nc3ccc(Oc4ccc(C)nc4)c(C)c3)c2c1 [CP-724714]	> 30 µM (inactive)	> 30 µM (inactive)	> 30 µM (inactive)	> 30 µM (inactive)	28.6 µM (active)	> 30 µM (inactive)	> 30 µM (inactive)	> 30 µM (inactive)	> 30 µM (inactive)	> 30 µM (inactive)
Cc1nc(NC(=O)N2CCC[C@H]2C(N)=O)sc1-c1ccnc(C(C)(C)C(F)(F)F)c1 [ALPELISIB]	> 30 µM (inactive)	> 30 µM (inactive)	> 30 µM (inactive)	> 30 µM (inactive)	> 30 µM (inactive)	> 30 µM (inactive)	> 30 µM (inactive)	> 30 µM (inactive)	> 30 µM (inactive)	> 30 µM (inactive)
Cn1ncc(Cl)c1-c1cc(C(=O)N[C@H](CN)Cc2ccc(F)c(F)c2)oc1Cl [UPROSERTIB]	> 30 µM (inactive)	> 30 µM (inactive)	> 30 µM (inactive)	> 30 µM (inactive)	> 30 µM (inactive)	> 30 µM (inactive)	> 30 µM (inactive)	> 30 µM (inactive)	> 30 µM (inactive)	> 30 µM (inactive)
CCCCCCCCCCCCCCCCCCOP(=O)([O-])OC1CC[N+](C)(C)CC1 [PERIFOSINE]	> 30 µM (inactive)	> 30 µM (inactive)	> 30 µM (inactive)	> 30 µM (inactive)	> 30 µM (inactive)	> 30 µM (inactive)	> 30 µM (inactive)	> 30 µM (inactive)	> 30 µM (inactive)	> 30 µM (inactive)
COc1ncc(-c2ccc3nccc(-c4ccnnc4)c3c2)cc1NS(=O)(=O)c1ccc(F)cc1F [OMIPALISIB]	> 30 µM (inactive)	> 30 µM (inactive)	> 30 µM (inactive)	> 30 µM (inactive)	> 30 µM (inactive)	> 30 µM (inactive)	> 30 µM (inactive)	> 30 µM (inactive)	> 30 µM (inactive)	> 30 µM (inactive)
C[C@H]1CNCCCN1S(=O)(=O)c1cccc2cncc(F)c12	> 30 µM (inactive)	1.15 µM (active)	> 30 µM (inactive)	> 30 µM (inactive)	> 30 µM (inactive)	> 30 µM (inactive)	> 30 µM (inactive)	> 30 µM (inactive)	> 30 µM (inactive)	> 30 µM (inactive)
Cc1cnc(NC(=O)Nc2cc(Br)c(C)cc2OC[C@@H]2CNCCO2)cn1 [RABUSERTIB]	> 30 µM (inactive)	> 30 µM (inactive)	> 30 µM (inactive)	> 30 µM (inactive)	3.82 µM	> 30 µM (inactive)	> 30 µM (inactive)	> 30 µM (inactive)	> 30 µM (inactive)	> 30 µM (inactive)
C[C@@H](Oc1cc(C(=O)Nc2ccc(C(=O)N3CCN(C)CC3)cc2)nnc1N)c1c(Cl)ccc(F)c1Cl	> 30 µM (inactive)	> 30 µM (inactive)	> 30 µM (inactive)	> 30 µM (inactive)	> 30 µM (inactive)	> 30 µM (inactive)	> 30 µM (inactive)	> 30 µM (inactive)	> 30 µM (inactive)	> 30 µM (inactive)
Cc1cccc(-c2nn3c(c2-c2ccnc4ccc(C(N)=O)cc24)CCC3)n1 [GALUNISERTIB]	> 30 µM (inactive)	> 30 µM (inactive)	> 30 µM (inactive)	> 30 µM (inactive)	> 30 µM (inactive)	> 30 µM (inactive)	> 30 µM (inactive)	> 30 µM (inactive)	> 30 µM (inactive)	> 30 µM (inactive)
O=C(Nc1nc2cccc(-c3ccc(CN4CCS(=O)(=O)CC4)cc3)n2n1)C1CC1 [FILGOTINIB]	2.03 µM (active)	> 30 µM (inactive)	> 30 µM (inactive)	> 30 µM (inactive)	> 30 µM (inactive)	> 30 µM (inactive)	> 30 µM (inactive)	> 30 µM (inactive)	> 30 µM (inactive)	> 30 µM (inactive)
COc1cc([C@@H]2c3cc4c(cc3[C@H](O)[C@H]3COC(=O)[C@@H]23)OCO4)cc(OC)c1OC [AXL-1717]	> 30 µM (inactive)	> 30 µM (inactive)	> 30 µM (inactive)	> 30 µM (inactive)	> 30 µM (inactive)	> 30 µM (inactive)	> 30 µM (inactive)	> 30 µM (inactive)	> 30 µM (inactive)	> 30 µM (inactive)
Cc1csc(-c2nnc(Nc3ccc(Oc4ncccc4-c4ccnc(N)n4)cc3)c3ccccc23)c1 [AMG-900]	> 30 µM (inactive)	0.02 µM (active)	> 30 µM (inactive)	> 30 µM (inactive)	> 30 µM (inactive)	> 30 µM (inactive)	> 30 µM (inactive)	> 30 µM (inactive)	2.79 µM (active)	> 30 µM (inactive)
COCc1c(-c2ccc(NC(=O)Nc3cc(C(F)(F)F)ccc3F)c(F)c2)c2c(N)ncnn2c1CN1CCOCC1	> 30 µM (inactive)	> 30 µM (inactive)	> 30 µM (inactive)	> 30 µM (inactive)	> 30 µM (inactive)	> 30 µM (inactive)	> 30 µM (inactive)	> 30 µM (inactive)	> 30 µM (inactive)	> 30 µM (inactive)
C=CC(=O)N1CCC[C@H](n2c(=O)n(-c3ccc(Oc4ccccc4)cc3)c3c(N)ncnc32)C1	> 30 µM (inactive)	> 30 µM (inactive)	0.007 µM	> 30 µM (inactive)	> 30 µM (inactive)	0.005 µM	> 30 µM (inactive)	> 30 µM (inactive)	> 30 µM (inactive)	0.004 µM
